In general, pEC50 refers to the negative decadic logarithm of the EC50, by convention in mol/L. Usually CC50 stands for the concentration that lowers cell viability or growth by half.

pEC50: −log10 of the molar value. Where two headings read alike, the source gives them in different places. Some results are limits rather than exact numbers.

This note sets out measurements from patent US20110052534A1, “Imidazopyridazine Compounds for Treating Viral Infections” (priority 2009, published 2011).

Holding throughout (type): cell-based
For series [1], the system named is HCV genotype 1a H77 NS3-5B bicistronic subgenomic replicon. The series is described as follows: microbe, parasite or virus in culture. The settings on record: Hepatitis C virus, luciferase activity after 48 hours, read-out: HCV Genotype 1A Replicon EC50. An excerpt: (§1) Two cell lines were used for screening of compounds for inhibiting HCV RNA replication (genoytype 1a and 1b). Genotype la replicon cells, are a Huh-7 derived cell line bearing the genotype 1a H77NS3-5B bicistronic subgenomic replicon. See, Blight, et al., J. Virol. (2003) 77(5): 3181-3190.
(§2) The genotype 1a replicon contains several adaptive mutations (NS4B Q31H, NS5A K68R, NS5A S232I), the luciferase gene and encodes for neomycin resistance. The genotype 1b replicon, also referred to as the ET replicon, is stably transfected with RNA transcripts harboring a I389luc-ubi-neo/NS3-3′/ET replicon with firefly luciferase-ubiquitin-neomycin phosphotransferase fusion protein and EMCV-IRES driven NS3-5B polyprotein containing the cell culture adaptive mutations (E1202G; T12801; K1846T) See, Kreiger, et al., Journal of Virology 75:4614-4624 (2001). Both cell lines were grown in DMEM, supplemented with 10% fetal calf serum, 2 mM Glutamine, Penicillin (100 IU/mL)/Streptomycin (100 μg/mL), 1×nonessential amino acids, and 250 μg/mL G418 (“Geneticin”). They were all available through Life Technologies (Bethesda, Md.). The cells were plated at 0.5×10^4 cells/well in 384 well plates containing compounds. The final concentration of compounds ranged between 0.1 nM to 50 μM and the final DMSO concentration of 0.5%.
(§3) Luciferase activity was measured 48 hours later by adding a Steady glo (Promega, Madison, Wis.). Percent inhibition of replication data was plotted relative to no compound control. Under the same condition, cytotoxicity of the compounds was determined using cell titer glo (Promega, Madison, Wis.). EC50 values were determined from a 10 point dose response curve using 2-4 fold serial dilutions for each compound, which spans a concentration range of at least a 1000 fold. Replicon EC50 values, the concentration of compound required to inhibit 50% of the assay response, were calculated by curve fitting data to the Hill equation, using a non-linear least-squares curve-fitting program. The software tested the data for quality and rejected compounds with high and low activity before fitting the equation below.
(§4) Analysis was performed using an XC50 module and BioAssay Enterprise (Cambridge Soft).

The test system of series [2] is HCV genotype 1b replicon (ET replicon). Description: microbe, parasite or virus in culture. Particulars: Hepatitis C virus, luciferase activity after 48 hours, read-out: HCV Genotype 1B Replicon EC50.
Text: as §1, §2, §3, §4

The nature of series [3]: in vitro. Particulars: human; Table 3; cytotoxicity, cell titer glo, same condition as replicon assay; read-out: HCV Genotype 1B CC50.
Text: as §2, §3

With `COC(=O)C(c1cc(-c2ccc(C3CC3)cc2C(F)(F)F)no1)n1cc2nc(-c3cccc(F)c3F)nc-2cn1` (centres unmarked) [Compound 178, Methyl {3-[4-cyclopropyl-2-(trifluoromethyl)phenyl]-5-isoxazolyl}[2-(2,3-difluorophenyl)-5H-imidazo[4,5-d]pyridazin-5-yl]acetate], the results for the pEC50 in series [1] (Table 3) and in series [2] (Table 3) were 7.30 and 8.00, respectively. In addition, the CC50 in series [3] worked out at 25000 nM.
With `CCCOC(=O)C(c1cc(-c2ccc(C3CC3)cc2C(F)(F)F)no1)n1cc2nc(-c3cccc(F)c3F)nc-2cn1` (centres unmarked) [Compound 184, Propyl {3-[4-cyclopropyl-2-(trifluoromethyl)phenyl]-5-isoxazolyl}[2-(2,3-difluorophenyl)-5H-imidazo[4,5-d]pyridazin-5-yl]acetate], the pEC50 was 7.10 in series [1] (Table 3) and 7.89 in series [2] (Table 3). For the same compound, the CC50 in series [3] is 25000 nM.
As to `CC(CO)(CO)COC(=O)C(c1cc(-c2ccc(C3CC3)cc2C(F)(F)F)no1)n1cc2nc(-c3cccc(F)c3F)nc-2cn1` (centres unmarked) [Compound 180, 3-hydroxy-2-(hydroxymethyl)-2-methylpropyl {3-[4-cyclopropyl-2-(trifluoromethyl)phenyl]-5-isoxazolyl}[2-(2,3-difluorophenyl)-5H-imidazo[4,5-d]pyridazin-5-yl]acetate], the results for the pEC50 in series [1] (Table 3) and in series [2] (Table 3) were 7.10 and 8.10, respectively.
For `O=C(OCCCO)C(c1cc(-c2ccc(C3CC3)cc2C(F)(F)F)no1)n1cc2nc(-c3cccc(F)c3F)nc-2cn1` (centres unmarked) [Compound 182, 3-Hydroxypropyl {3-[4-cyclopropyl-2-(trifluoromethyl)phenyl]-5-isoxazolyl}[2-(2,3-difluorophenyl)-5H-imidazo[4,5-d]pyridazin-5-yl]acetate], the pEC50 in series [1] (Table 3) was 7.20; in series [2] (Table 3), 7.89. The CC50 in series [3] was above 50000 nM.
`O=C(OCCCOP(=O)(O)O)C(c1cc(-c2ccc(C3CC3)cc2C(F)(F)F)no1)n1cc2nc(-c3cccc(F)c3F)nc-2cn1` (centres unmarked) [Compound 186, 3-(phosphonooxy)propyl {3-[4-cyclopropyl-2-(trifluoromethyl)phenyl]-5-isoxazolyl}[2-(2,3-difluorophenyl)-5H-imidazo[4,5-d]pyridazin-5-yl]acetate]: the values for the pEC50 in series [1] (Table 3) and in series [2] (Table 3) were 7.10 and 8.00, respectively. In addition, the CC50 in series [3] is 50000 nM.
Regarding `CCCOc1ccc(-c2cc(C(C(=O)OC(C)(C)C)n3cc4nc(-c5cccc(F)c5F)nc-4cn3)on2)c(C(F)(F)F)c1` (centres unmarked) [Compound 6, 1,1-Dimethylethyl [2-(2,3-difluorophenyl)-5H-imidazo[4,5-d]pyridazin-5-yl]{3-[4-(propyloxy)-2-(trifluoromethyl)phenyl]-5-isoxazolyl}acetate], the negative logarithm of the EC50 (pEC50) in series [1] (Table 2) was 7.19; in series [2] (Table 2), 7.80.
On to `CCCOC(=O)C(c1cc(-c2ccc(OCCC)cc2C(F)(F)F)no1)n1cc2nc(-c3cccc(F)c3F)nc-2cn1` (centres unmarked) [Compound 3, Propyl [2-(2,3-difluorophenyl)-5H-imidazo[4,5-d]pyridazin-5-yl]{3-[4-(propyloxy)-2-(trifluoromethyl)phenyl]-5-isoxazolyl}acetate], for which the pEC50 in series [1] (Table 2) is 7.70; in series [2] (Table 2) it was 8.30.
For `CCCOc1ccc(-c2cc(C(C(=O)OCCCO)n3cc4nc(-c5cccc(F)c5F)nc-4cn3)on2)c(C(F)(F)F)c1` (centres unmarked) [Compound 5, 3-Hydroxypropyl [2-(2,3-difluorophenyl)-5H-imidazo[4,5-d]pyridazin-5-yl]{3-[4-(propyloxy)-2-(trifluoromethyl)phenyl]-5-isoxazolyl}acetate] the same measures were 7.62 and 8.22.
`CCCOC(=O)C(c1ccc(-c2ccc(OCCC)cc2C(F)(F)F)nc1)n1cc2nc(-c3cccc(F)c3F)nc-2cn1` (centres unmarked) [Compound 41, Propyl [2-(2,3-difluorophenyl)-5H-imidazo[4,5-d]pyridazin-5-yl]{6-[4-(propyloxy)-2-(trifluoromethyl)phenyl]-3-pyridinyl}acetate]: the pEC50 in series [1] (Table 2) was 6.05; in series [2] (Table 2) it was 5.57.
As for `O=C(OCCOCCO)C(c1cc(-c2ccc(C3CC3)cc2C(F)(F)F)no1)n1cc2nc(-c3cccc(F)c3F)nc-2cn1` (centres unmarked) [Compound 179, 2-[(2-hydroxyethyl)oxy]ethyl {3-[4-cyclopropyl-2-(trifluoromethyl)phenyl]-5-isoxazolyl}[2-(2,3-difluorophenyl)-5H-imidazo[4,5-d]pyridazin-5-yl]acetate], the values for the pEC50 in series [1] (Table 3) and in series [2] (Table 3) were 7.10 and 7.89, respectively. Besides, the CC50 in series [3] stood at 50000 nM.
For the compound `CCCOc1ccc(-c2cc(C(C(=O)OCC)n3cc4nc(-c5cccc(F)c5F)nc-4cn3)on2)c(C(F)(F)F)c1` (centres unmarked) [Compound 2, Ethyl [2-(2,3-difluorophenyl)-5H-imidazo[4,5-d]pyridazin-5-yl]{3-[4-(propyloxy)-2-(trifluoromethyl)phenyl]-5-isoxazolyl}acetate], the pEC50 in series [1] (Table 2) is 7.92; in series [2] (Table 2), 8.40.
The like results for `CCCOc1ccc(-c2ccc(C(C(=O)OC(C)C)n3cc4nc(-c5cccc(F)c5F)nc-4cn3)cn2)c(C(F)(F)F)c1` (centres unmarked) [Compound 42, 1-Methylethyl [2-(2,3-difluorophenyl)-5H-imidazo[4,5-d]pyridazin-5-yl]{6-[4-(propyloxy)-2-(trifluoromethyl)phenyl]-3-pyridinyl}acetate] were, in that order, 6.01 and 6.29.
On to `CCCOc1ccc(-c2cc(C(C(=O)NC)n3cc4nc(-c5cccc(F)c5F)nc-4cn3)on2)c(C(F)(F)F)c1` (centres unmarked) [Compound 20, 2-[2-(2,3-Difluorophenyl)-5H-imidazo[4,5-d]pyridazin-5-yl]-N-methyl-2-{3-[4-(propyloxy)-2-(trifluoromethyl)phenyl]-5-isoxazolyl}acetamide], for which the pEC50 was 6.04 in series [1] (Table 2) and 7.19 in series [2] (Table 2).
On to `CCCOc1ccc(-c2ncc(C(C(=O)OC)n3cc4nc(-c5cccc(F)c5F)nc-4cn3)cn2)c(C(F)(F)F)c1` (centres unmarked) [Compound 58, Methyl [2-(2,3-difluorophenyl)-5H-imidazo[4,5-d]pyridazin-5-yl]{2-[4-(propyloxy)-2-(trifluoromethyl)phenyl]-5-pyrimidinyl}acetate], for which the pEC50 is 5.59 in series [1] (Table 2) and 6.57 in series [2] (Table 2).
Regarding `CCCOc1ccc(-c2cc(C(C(=O)OC(C)C)n3cc4nc(-c5cccc(F)c5F)nc-4cn3)on2)c(C(F)(F)F)c1` (centres unmarked) [Compound 4, 1-Methylethyl [2-(2,3-difluorophenyl)-5H-imidazo[4,5-d]pyridazin-5-yl]{3-[4-(propyloxy)-2-(trifluoromethyl)phenyl]-5-isoxazolyl}acetate], the pEC50 in series [1] (Table 2) is 7.52; in series [2] (Table 2), 8.00.
Regarding `CCCOc1ccc(-c2ccc(C(C(=O)OC)n3cc4nc(-c5cccc(F)c5F)nc-4cn3)cn2)c(C(F)(F)F)c1` (centres unmarked) [Compound 39, Methyl [2-(2,3-difluorophenyl)-5H-imidazo[4,5-d]pyridazin-5-yl]{6-[4-(propyloxy)-2-(trifluoromethyl)phenyl]-3-pyridinyl}acetate], the pEC50 was 5.03 in series [1] (Table 2) and 6.10 in series [2] (Table 2).
Take `CCCOc1ccc(-c2cc(C(C(=O)OCCOCCOCCOCCO)n3cc4nc(-c5cccc(F)c5F)nc-4cn3)on2)c(C(F)(F)F)c1` (centres unmarked) [Compound 12, 2-{[2-({2-[(2-Hydroxyethyl)oxy]ethyl}oxy)ethyl]oxy}ethyl [2-(2,3-difluorophenyl)-5H-imidazo[4,5-d]pyridazin-5-yl]{3-[4-(propyloxy)-2-(trifluoromethyl)phenyl]-5-isoxazolyl}acetate]: the results for the pEC50 in series [1] (Table 2) and in series [2] (Table 2) were 7.77 and 9.00, respectively.
As to `CCCCOC(=O)C(c1cc(-c2ccc(OCCC)cc2C(F)(F)F)no1)n1cc2nc(-c3cccc(F)c3F)nc-2cn1` (centres unmarked) [Compound 7, Butyl [2-(2,3-difluorophenyl)-5H-imidazo[4,5-d]pyridazin-5-yl]{3-[4-(propyloxy)-2-(trifluoromethyl)phenyl]-5-isoxazolyl}acetate], the pEC50 in series [1] (Table 2) is 7.96; in series [2] (Table 2), 8.30.
